The values below come from PMC7063354, “Novel dipeptidyl peptidase‐IV and angiotensin‐I‐converting enzyme inhibitory peptides released from quinoa protein by in silico proteolysis” (Food Science & Nutrition, 2020).

pIC50: −log10 of the molar value. Like-named read-outs stand apart in the source and are kept apart here. Peptide text beside a SMILES is read from it.

The target in one experiment is T1, ACE (Homo sapiens, UniProt P12821).
T1 construct: purchased ACE kit‐WST
Nature of the experiment: ACE inhibition assay (ACE kit-WST). The class given is biochemical. The note with it: chemically synthesized peptides; mean ± SD of three replicates. The procedure: The ACE inhibition assay was carried out with the ACE inhibitory assay kit (ACE kit‐WST). Absorbance at 450 nm was measured using a plate reader (SpectraMax plus, Molecular devices), and the IC50 value reported for each sample was the mean value from three independent replicate assays.

In experiment [1] the target is T2, DPP-IV (Homo sapiens, UniProt P27487).
T2 construct: purchased Abnova KA1311
The experiment is described as follows: DPP-IV inhibition assay (DPP-IV inhibitor screening assay kit, Gly-Pro-Aminomethylcoumarin substrate). The class given is biochemical. Conditions: chemically synthesized peptides; mean ± SD of three replicates. The procedure: The DPP‐IV inhibition assay was determined using DPP‐IV inhibitor screening assay kit (KA1311, Abnova). Briefly, peptide samples (10 μl), dispersed in assay buffer (20 mM Tris‐HCl containing 100 mM NaCl and 1 mM EDTA, pH 8.0) at various concentrations, were mixed with assay buffer and DPP‐IV in a 96‐well plate. Then, substrate solution (Gly‐Pro‐Aminomethylcoumarin) was added to initiate the reactions. The mixture was incubated at 37°C for 30 min, and the fluorescence was measured using a plate reader (Synergy MX, Bio Tek) at an excitation wavelength of 350 nm and an emission wavelength of 450 nm. The concentration of the DPP‐IV inhibitor required to inhibit 50% of DPP‐IV activity under the above assay conditions was defined as the IC50, which was the mean value from three independent replicate assays.

Experiment [2] has as its target T2, DPP-IV. On the set-up: method as in Vilcacundo et al., 2017. Conditions: peptide released from quinoa protein by pepsin-pancreatin digestion; ref Vilcacundo et al., 2017; read-out: IC50 DPP-IV inhibitory activity; cited from earlier work.

T2 sequence (P27487 whole entry): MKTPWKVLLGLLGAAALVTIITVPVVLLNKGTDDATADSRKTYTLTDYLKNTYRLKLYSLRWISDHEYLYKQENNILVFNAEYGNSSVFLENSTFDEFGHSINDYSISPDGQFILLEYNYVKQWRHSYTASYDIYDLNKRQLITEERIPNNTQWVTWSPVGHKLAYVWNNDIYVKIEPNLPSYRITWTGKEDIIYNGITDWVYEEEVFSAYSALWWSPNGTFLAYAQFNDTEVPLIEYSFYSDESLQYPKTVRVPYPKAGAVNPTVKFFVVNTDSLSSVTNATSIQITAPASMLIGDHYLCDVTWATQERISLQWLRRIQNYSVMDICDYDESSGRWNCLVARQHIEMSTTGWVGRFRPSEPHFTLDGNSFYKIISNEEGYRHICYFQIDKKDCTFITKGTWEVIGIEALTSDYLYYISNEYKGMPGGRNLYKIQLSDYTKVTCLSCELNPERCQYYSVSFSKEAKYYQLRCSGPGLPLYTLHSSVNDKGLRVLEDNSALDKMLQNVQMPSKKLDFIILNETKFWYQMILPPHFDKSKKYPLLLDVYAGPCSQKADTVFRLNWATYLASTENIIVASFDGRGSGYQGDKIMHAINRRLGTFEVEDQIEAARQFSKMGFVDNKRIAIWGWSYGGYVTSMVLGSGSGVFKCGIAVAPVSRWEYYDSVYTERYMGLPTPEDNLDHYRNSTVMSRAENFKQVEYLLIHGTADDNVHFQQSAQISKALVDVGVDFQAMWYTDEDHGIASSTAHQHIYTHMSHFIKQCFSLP
T1 sequence (P12821 30-1306, species assumed): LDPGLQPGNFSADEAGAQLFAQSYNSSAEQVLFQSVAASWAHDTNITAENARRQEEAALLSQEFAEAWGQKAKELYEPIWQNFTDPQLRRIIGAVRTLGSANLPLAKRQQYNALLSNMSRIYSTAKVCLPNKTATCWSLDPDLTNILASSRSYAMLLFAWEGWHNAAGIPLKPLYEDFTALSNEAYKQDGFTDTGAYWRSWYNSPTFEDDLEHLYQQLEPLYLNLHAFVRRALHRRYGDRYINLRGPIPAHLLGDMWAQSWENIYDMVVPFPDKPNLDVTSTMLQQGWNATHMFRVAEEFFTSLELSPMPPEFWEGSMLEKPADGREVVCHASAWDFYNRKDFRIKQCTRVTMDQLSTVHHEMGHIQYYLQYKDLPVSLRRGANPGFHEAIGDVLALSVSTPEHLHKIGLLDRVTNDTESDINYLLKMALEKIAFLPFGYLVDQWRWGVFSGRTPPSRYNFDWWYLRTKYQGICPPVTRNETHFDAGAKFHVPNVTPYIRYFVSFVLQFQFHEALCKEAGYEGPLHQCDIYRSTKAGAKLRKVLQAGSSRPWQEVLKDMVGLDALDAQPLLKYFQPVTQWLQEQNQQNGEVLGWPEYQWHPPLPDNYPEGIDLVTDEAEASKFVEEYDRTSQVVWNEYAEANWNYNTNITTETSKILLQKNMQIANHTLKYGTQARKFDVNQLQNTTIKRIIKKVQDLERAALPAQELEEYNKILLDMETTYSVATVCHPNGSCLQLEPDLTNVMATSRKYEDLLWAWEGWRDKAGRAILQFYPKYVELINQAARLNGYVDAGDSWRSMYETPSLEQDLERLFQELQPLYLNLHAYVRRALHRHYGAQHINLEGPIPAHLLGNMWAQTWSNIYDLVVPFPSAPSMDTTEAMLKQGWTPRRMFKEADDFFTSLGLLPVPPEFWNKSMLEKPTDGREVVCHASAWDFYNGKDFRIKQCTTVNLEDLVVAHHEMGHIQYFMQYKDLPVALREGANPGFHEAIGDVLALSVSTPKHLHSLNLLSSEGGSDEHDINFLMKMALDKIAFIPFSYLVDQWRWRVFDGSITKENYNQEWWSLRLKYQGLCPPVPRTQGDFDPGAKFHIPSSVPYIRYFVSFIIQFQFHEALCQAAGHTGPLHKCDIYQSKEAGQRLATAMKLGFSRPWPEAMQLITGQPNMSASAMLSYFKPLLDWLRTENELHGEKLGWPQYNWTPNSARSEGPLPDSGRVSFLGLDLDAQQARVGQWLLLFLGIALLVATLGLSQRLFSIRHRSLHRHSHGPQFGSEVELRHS

As a reminder, the pIC50 is the negative decadic logarithm of the IC50, by convention in mol/L. As to `N[C@@H](Cc1cnc[nH]1)C(=O)N1CCC[C@H]1C(=O)N[C@@H](Cc1ccccc1)C(=O)O` [HPF] (H-His-Pro-Phe-OH), the pIC50 against ACE is 4.00; on DPP-IV [1] it was 4.47.

In the case of `CSCC[C@H](NC(=O)[C@@H](N)CC(N)=O)C(=O)N[C@@H](Cc1ccccc1)C(=O)O` [NMF] (H-Asn-Met-Phe-OH), the pIC50 is 3.82 against ACE and 3.90 at DPP-IV [1]. IQAEGGLT: the negative-log IC50 (pIC50) in the experiment with DPP-IV [2] is 3.57. For the compound `CSCC[C@H](N)C(=O)N[C@@H](C)C(=O)N[C@@H](Cc1ccccc1)C(=O)O` [MAF] (H-Met-Ala-Phe-OH), the pIC50 on ACE was 3.82; on DPP-IV [1], 3.47. Take `CSCC[C@H](N)C(=O)N[C@@H](CS)C(=O)NCC(=O)O` [MCG] (H-Met-Cys-Gly-OH): the pIC50 was 4.68 against ACE and 3.83 on DPP-IV [1].
